Experiments:
[1] = tested on: AGS (Gastric Adenocarcinoma); experiment: Cell viability analysis, gastric cancer AGS; assay type: cell-based, human
[2] = tested on: TSGH-8301 (Urinary Bladder Carcinoma); experiment: Cell viability analysis, bladder cancer TSGH-8301; assay type: cell-based, human
[3] = tested on: LoVo (Colorectal Adenocarcinoma); experiment: Cell viability analysis, colon cancer LoVo; assay type: cell-based, human
TOV-21G = experiment: Cell viability analysis, ovarian cancer TOV-21G; assay type: cell-based, human
[4] = tested on: Hep3B (hepatocellular carcinoma); experiment: Cell viability analysis, hepatic cancer Hep3B; assay type: cell-based, human
[5] = tested on: SAS (Tongue squamous cell carcinoma); experiment: Cell viability analysis, tongue cancer SAS; assay type: cell-based, human
U-2OS = experiment: Cell viability analysis, osteosarcoma U-2OS; assay type: cell-based, human
[6] = tested on: HeLa (Cervix Adenocarcinoma); experiment: Cell viability analysis, cervical cancer HeLa; assay type: cell-based, human
[7] = tested on: C-33A (Cervical carcinoma); experiment: Cell viability analysis, cervical cancer C-33A; assay type: cell-based, human
T24 = experiment: Cell viability analysis, bladder cancer T24; assay type: cell-based, human
[8] = tested on: MCF7 (Mammary Gland, Adenocarcinoma); experiment: Cell viability analysis, breast cancer MCF7; assay type: cell-based, human
[9] = tested on: PC3 (p53−) (Prostate Adenocarcinoma); experiment: Cell viability analysis, prostate cancer PC3; assay type: cell-based, human
[10] = tested on: A549 (Lung Adenocarcinoma); experiment: Cell viability analysis, lung cancer A549; assay type: cell-based, human
[11] = tested on: HCT116 (p53+) (Colorectal Carcinoma)
[12] = tested on: BCC (basal cell carcinoma); experiment: Cell viability analysis, skin cancer BCC; assay type: cell-based, human
[13] = tested on: HepG2 (Hepatocellular Carcinoma); experiment: Cell viability analysis, hepatic cancer HepG2; assay type: cell-based, human
NIH: OVCAR-3 = experiment: Cell viability analysis, ovarian cancer NIH: OVCAR-3; assay type: cell-based, human
BxPC-3 = experiment: Cell viability analysis, pancreatic cancer BxPC-3; assay type: cell-based, human
[14] = tested on: MDA-MB-231 (Mammary Gland, Adenocarcinoma); experiment: Cell viability analysis, breast cancer MDA-MB-231; assay type: cell-based, human
[15] = tested on: 786-O (Renal adenocarcinoma); experiment: Cell viability analysis, renal cancer 786-O; assay type: cell-based, human
[16] = tested on: A375 (Amelanotic Melanoma); experiment: Cell viability analysis, skin cancer A375; assay type: cell-based, human
[17] = tested on: HI650 (Lung Adenocarcinoma); experiment: Cell viability analysis, lung cancer HI650; assay type: cell-based, human
[18] = tested on: MKN-45 (Gastric Adenocarcinoma); experiment: Cell viability analysis, gastric cancer MKN-45; assay type: cell-based, human
AsPC-1 = experiment: Cell viability analysis, pancreatic cancer AsPC-1; assay type: cell-based, human

CCCOc1ccc2nc(NC(=O)OC)[nH]c2c1 [Oxibendazole] was tested, and the viability at 10 µM ([1]; Homo sapiens, 72 h, read-out: The results of antibiotic drug inhibiting cancer cell lines (cell viability analysis), AGS, repeated experiment) was 37.6%, the viability at 10 µM ([2]; Homo sapiens, 72 h, read-out: The results of antibiotic drug inhibiting cancer cell lines (cell viability analysis), TSGH-8301, TSGH-8301, repeated experiment) was 48.6% and the viability at 10 µM ([3]; Homo sapiens, LoVo, 72 h, read-out: The results of antibiotic drug inhibiting cancer cell lines (cell viability analysis), LoVo, repeated experiment) was 53.4%. For the same compound, the viability at 10 µM (TOV-21G; Homo sapiens, TOV21G, 72 h, read-out: The results of antibiotic drug inhibiting cancer cell lines (cell viability analysis), TOV-21G) was 26.6%, the viability at 10 µM ([4]; Homo sapiens, Hep3B, 72 h, read-out: The results of antibiotic drug inhibiting cancer cell lines (cell viability analysis), Hep3B) was 59.8% and the viability at 10 µM ([5]; Homo sapiens, 72 h, read-out: The results of antibiotic drug inhibiting cancer cell lines (cell viability analysis), SAS) was 41.2%. The viability at 10 µM (U-2OS; Homo sapiens, U2OS, 72 h, read-out: The results of antibiotic drug inhibiting cancer cell lines (cell viability analysis), U2OS) was 46.6%, the viability at 10 µM ([6]; Homo sapiens, HeLa, 72 h, read-out: The results of antibiotic drug inhibiting cancer cell lines (cell viability analysis), HeLa, repeated experiment) was 29.3% and the viability at 10 µM ([7]; Homo sapiens, C-33-A, 72 h, read-out: The results of antibiotic drug inhibiting cancer cell lines (cell viability analysis), C-33A) was 47.8%. It also gave a viability at 10 µM (T24; Homo sapiens, T-24, 72 h, read-out: The results of antibiotic drug inhibiting cancer cell lines (cell viability analysis), T24) of 38.1%, a viability at 10 µM ([8]; Homo sapiens, MCF7, 72 h, read-out: The results of antibiotic drug inhibiting cancer cell lines (cell viability analysis), MCF-7, MCF-7, repeated experiment) of 60.9% and a viability at 10 µM ([9]; Homo sapiens, 72 h, read-out: The results of antibiotic drug inhibiting cancer cell lines (cell viability analysis), PC-3, PC-3, repeated experiment) of 38.9%. It also gave a viability at 10 µM ([10]; Homo sapiens, A549, 72 h, read-out: The results of antibiotic drug inhibiting cancer cell lines (cell viability analysis), A549, A549, repeated experiment) of 24%, a viability [11] of 22.1% and a viability at 10 µM ([12]; Homo sapiens, 72 h, read-out: The results of antibiotic drug inhibiting cancer cell lines (cell viability analysis), BCC) of 34.3%. It also gave a viability at 10 µM ([13]; Homo sapiens, HepG2, 72 h, read-out: The results of antibiotic drug inhibiting cancer cell lines (cell viability analysis), HepG2, HepG2, repeated experiment) of 64.5%, a viability at 10 µM (NIH: OVCAR-3; Homo sapiens, OVCAR-3, 72 h, read-out: The results of antibiotic drug inhibiting cancer cell lines (cell viability analysis), NIH-OVCAR-3) of 54.8% and a viability at 10 µM (BxPC-3; Homo sapiens, BXPC-3, 72 h, read-out: The results of antibiotic drug inhibiting cancer cell lines (cell viability analysis), BxPC-3) of 29.1%. The viability at 10 µM ([14]; Homo sapiens, MDA-MB-231, 72 h, read-out: The results of antibiotic drug inhibiting cancer cell lines (cell viability analysis), MDA-MB231) was 48.9%, the viability at 10 µM ([15]; Homo sapiens, 786-0, 72 h, read-out: The results of antibiotic drug inhibiting cancer cell lines (cell viability analysis), 786-O) was 18.5% and the viability at 10 µM ([16]; Homo sapiens, A-375, 72 h, read-out: The results of antibiotic drug inhibiting cancer cell lines (cell viability analysis), A375, A375, repeated experiment) was 31.8%. For the same compound, the viability at 10 µM ([17]; Homo sapiens, NCI-H1650, 72 h, read-out: The results of antibiotic drug inhibiting cancer cell lines (cell viability analysis), H1650, H1650, repeated experiment) was 41.3%, the viability at 10 µM ([18]; Homo sapiens, MKN-45, 72 h, read-out: The results of antibiotic drug inhibiting cancer cell lines (cell viability analysis), MKN-45, MKN-45, repeated experiment) was 65.6% and the viability at 10 µM (AsPC-1; Homo sapiens, ASPC1, 72 h, read-out: The results of antibiotic drug inhibiting cancer cell lines (cell viability analysis), AsPC-1) was 33%.

CC(=O)Oc1ccccc1C(=O)Nc1ncc([N+](=O)[O-])s1 [Nitazoxanide (Alinia, Annita)] was tested, and the “The results of antibiotic drug inhibiting cancer cell lines (cell viability analysis), AGS” value [1] was 99.04, the “The results of antibiotic drug inhibiting cancer cell lines (cell viability analysis), TSGH-8301” value [2] was 87.18 and the “The results of antibiotic drug inhibiting cancer cell lines (cell viability analysis), LoVo” value [3] was 94.76. For the same compound, the “The results of antibiotic drug inhibiting cancer cell lines (cell viability analysis), TOV-21G” value (TOV-21G) was 62.56, the “The results of antibiotic drug inhibiting cancer cell lines (cell viability analysis), Hep3B” value [4] was 106.8 and the “The results of antibiotic drug inhibiting cancer cell lines (cell viability analysis), SAS” value [5] was 78.89. The “The results of antibiotic drug inhibiting cancer cell lines (cell viability analysis), U2OS” value (U-2OS) was 83.33, the “The results of antibiotic drug inhibiting cancer cell lines (cell viability analysis), HeLa” value [6] was 84.93 and the “The results of antibiotic drug inhibiting cancer cell lines (cell viability analysis), C-33A” value [7] was 103.9. For the same compound, the “The results of antibiotic drug inhibiting cancer cell lines (cell viability analysis), T24” value (T24) was 76.47, the “The results of antibiotic drug inhibiting cancer cell lines (cell viability analysis), MCF-7” value [8] was 79.28 and the “The results of antibiotic drug inhibiting cancer cell lines (cell viability analysis), PC-3” value [9] was 90.27. The “The results of antibiotic drug inhibiting cancer cell lines (cell viability analysis), A549” value [10] was 95.57, the viability [11] was 98.4% and the “The results of antibiotic drug inhibiting cancer cell lines (cell viability analysis), BCC” value [12] was 76. The “The results of antibiotic drug inhibiting cancer cell lines (cell viability analysis), HepG2” value [13] was 107.5, the “The results of antibiotic drug inhibiting cancer cell lines (cell viability analysis), NIH-OVCAR-3” value (NIH: OVCAR-3) was 104.5 and the “The results of antibiotic drug inhibiting cancer cell lines (cell viability analysis), BxPC-3” value (BxPC-3) was 89.5. The “The results of antibiotic drug inhibiting cancer cell lines (cell viability analysis), MDA-MB231” value [14] was 91.23, the “The results of antibiotic drug inhibiting cancer cell lines (cell viability analysis), 786-O” value [15] was 44.2 and the “The results of antibiotic drug inhibiting cancer cell lines (cell viability analysis), A375” value [16] was 94.2. The “The results of antibiotic drug inhibiting cancer cell lines (cell viability analysis), H1650” value [17] was 85.86, the “The results of antibiotic drug inhibiting cancer cell lines (cell viability analysis), MKN-45” value [18] was 97.28 and the “The results of antibiotic drug inhibiting cancer cell lines (cell viability analysis), AsPC-1” value (AsPC-1) was 84.09.
